Assay results published in ChEMBL document CHEMBL3991601, “The target landscape of clinical kinase drugs” (Science, 2017).
The source made the active and inactive calls. For most assays here, no stated cut-off is given here; in the data, actives have a measured Kd and inactives only a lower limit.

Legend:
[1] = molecular target: T1, General transcription and DNA repair factor IIH helicase subunit XPD (Homo sapiens, UniProt P18074); settings: read-out: Kd apparent; k-562, colo 205, sk-n-be(2) and mv-4-11
T1 sequence (P18074 whole entry): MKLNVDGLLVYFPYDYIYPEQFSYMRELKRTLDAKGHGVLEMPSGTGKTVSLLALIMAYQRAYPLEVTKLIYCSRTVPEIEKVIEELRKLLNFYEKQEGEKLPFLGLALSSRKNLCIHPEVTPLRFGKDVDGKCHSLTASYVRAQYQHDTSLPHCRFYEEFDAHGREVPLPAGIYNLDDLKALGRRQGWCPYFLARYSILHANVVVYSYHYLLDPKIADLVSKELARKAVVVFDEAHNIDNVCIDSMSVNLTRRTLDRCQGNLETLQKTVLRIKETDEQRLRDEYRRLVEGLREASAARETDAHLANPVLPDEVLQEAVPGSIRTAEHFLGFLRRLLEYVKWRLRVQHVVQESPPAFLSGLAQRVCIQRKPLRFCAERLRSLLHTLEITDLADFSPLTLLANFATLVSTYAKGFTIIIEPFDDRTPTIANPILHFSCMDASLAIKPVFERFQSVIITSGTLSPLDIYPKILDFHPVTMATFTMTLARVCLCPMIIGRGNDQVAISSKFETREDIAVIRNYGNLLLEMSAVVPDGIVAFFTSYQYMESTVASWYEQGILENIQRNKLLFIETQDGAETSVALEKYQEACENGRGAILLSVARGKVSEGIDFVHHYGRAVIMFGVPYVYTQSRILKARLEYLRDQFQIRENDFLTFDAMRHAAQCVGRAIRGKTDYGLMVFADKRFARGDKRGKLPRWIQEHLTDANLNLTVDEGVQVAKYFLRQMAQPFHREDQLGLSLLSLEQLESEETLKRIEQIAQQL

[2] = molecular target: U5 small nuclear ribonucleoprotein 200 kDa helicase (Homo sapiens, UniProt O75643)
Sequence of U5 small nuclear ribonucleoprotein 200 kDa helicase (O75643 whole entry): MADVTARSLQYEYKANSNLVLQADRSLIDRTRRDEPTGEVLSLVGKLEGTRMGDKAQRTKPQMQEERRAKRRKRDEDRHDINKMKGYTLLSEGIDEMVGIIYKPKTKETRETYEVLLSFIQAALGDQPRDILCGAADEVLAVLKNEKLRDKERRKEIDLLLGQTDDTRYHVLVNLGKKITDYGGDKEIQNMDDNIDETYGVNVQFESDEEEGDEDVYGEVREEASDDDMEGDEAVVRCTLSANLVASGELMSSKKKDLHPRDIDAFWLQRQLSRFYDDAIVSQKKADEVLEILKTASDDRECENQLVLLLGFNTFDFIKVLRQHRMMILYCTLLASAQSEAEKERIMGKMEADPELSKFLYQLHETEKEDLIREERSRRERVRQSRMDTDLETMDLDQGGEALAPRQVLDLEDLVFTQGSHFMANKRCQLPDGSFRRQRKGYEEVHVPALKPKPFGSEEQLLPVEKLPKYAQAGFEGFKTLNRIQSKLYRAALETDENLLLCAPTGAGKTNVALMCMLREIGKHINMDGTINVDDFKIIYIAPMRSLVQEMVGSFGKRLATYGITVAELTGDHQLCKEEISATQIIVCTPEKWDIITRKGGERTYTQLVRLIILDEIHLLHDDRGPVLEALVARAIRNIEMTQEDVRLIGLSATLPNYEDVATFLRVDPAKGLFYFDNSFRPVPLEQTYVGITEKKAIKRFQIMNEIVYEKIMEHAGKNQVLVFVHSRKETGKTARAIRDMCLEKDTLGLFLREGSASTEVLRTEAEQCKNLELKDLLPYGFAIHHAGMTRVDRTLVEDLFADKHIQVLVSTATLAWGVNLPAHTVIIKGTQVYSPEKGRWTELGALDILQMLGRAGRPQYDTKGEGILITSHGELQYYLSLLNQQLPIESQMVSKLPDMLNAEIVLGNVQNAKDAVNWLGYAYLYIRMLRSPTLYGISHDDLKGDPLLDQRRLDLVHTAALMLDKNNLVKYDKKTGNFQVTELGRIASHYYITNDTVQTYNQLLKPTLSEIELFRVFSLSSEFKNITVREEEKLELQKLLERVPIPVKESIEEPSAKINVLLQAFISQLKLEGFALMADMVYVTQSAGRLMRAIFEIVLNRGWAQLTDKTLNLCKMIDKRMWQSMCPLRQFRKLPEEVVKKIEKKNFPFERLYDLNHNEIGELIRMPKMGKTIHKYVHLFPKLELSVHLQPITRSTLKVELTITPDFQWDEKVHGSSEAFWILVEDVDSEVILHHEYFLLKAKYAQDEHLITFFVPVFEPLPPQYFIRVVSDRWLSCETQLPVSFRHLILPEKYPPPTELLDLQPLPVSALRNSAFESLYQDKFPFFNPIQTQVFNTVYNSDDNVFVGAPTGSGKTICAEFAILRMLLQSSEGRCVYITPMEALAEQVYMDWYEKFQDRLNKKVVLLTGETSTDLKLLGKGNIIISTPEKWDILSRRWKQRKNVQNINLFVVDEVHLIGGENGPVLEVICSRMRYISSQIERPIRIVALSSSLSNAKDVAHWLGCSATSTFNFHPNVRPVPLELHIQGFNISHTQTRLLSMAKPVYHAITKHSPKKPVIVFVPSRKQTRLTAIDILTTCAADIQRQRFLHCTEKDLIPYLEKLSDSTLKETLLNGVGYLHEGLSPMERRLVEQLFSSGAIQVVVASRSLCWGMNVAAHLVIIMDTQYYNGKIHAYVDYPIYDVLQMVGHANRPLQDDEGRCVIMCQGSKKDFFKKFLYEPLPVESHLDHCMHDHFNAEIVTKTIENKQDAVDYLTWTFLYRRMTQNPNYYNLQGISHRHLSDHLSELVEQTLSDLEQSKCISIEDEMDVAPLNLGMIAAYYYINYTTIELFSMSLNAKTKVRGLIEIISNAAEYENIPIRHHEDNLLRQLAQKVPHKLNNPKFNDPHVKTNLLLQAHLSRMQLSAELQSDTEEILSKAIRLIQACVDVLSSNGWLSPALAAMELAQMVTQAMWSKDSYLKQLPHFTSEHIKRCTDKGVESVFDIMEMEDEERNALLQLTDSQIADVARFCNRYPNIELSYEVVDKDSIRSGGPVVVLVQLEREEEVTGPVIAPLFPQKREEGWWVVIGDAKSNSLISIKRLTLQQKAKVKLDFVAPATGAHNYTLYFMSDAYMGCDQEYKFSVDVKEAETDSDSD

[3] = molecular target: Myosin light chain kinase, smooth muscle (Homo sapiens, UniProt Q15746)
Sequence of Myosin light chain kinase, smooth muscle (Q15746 whole entry, the tested form may be a part): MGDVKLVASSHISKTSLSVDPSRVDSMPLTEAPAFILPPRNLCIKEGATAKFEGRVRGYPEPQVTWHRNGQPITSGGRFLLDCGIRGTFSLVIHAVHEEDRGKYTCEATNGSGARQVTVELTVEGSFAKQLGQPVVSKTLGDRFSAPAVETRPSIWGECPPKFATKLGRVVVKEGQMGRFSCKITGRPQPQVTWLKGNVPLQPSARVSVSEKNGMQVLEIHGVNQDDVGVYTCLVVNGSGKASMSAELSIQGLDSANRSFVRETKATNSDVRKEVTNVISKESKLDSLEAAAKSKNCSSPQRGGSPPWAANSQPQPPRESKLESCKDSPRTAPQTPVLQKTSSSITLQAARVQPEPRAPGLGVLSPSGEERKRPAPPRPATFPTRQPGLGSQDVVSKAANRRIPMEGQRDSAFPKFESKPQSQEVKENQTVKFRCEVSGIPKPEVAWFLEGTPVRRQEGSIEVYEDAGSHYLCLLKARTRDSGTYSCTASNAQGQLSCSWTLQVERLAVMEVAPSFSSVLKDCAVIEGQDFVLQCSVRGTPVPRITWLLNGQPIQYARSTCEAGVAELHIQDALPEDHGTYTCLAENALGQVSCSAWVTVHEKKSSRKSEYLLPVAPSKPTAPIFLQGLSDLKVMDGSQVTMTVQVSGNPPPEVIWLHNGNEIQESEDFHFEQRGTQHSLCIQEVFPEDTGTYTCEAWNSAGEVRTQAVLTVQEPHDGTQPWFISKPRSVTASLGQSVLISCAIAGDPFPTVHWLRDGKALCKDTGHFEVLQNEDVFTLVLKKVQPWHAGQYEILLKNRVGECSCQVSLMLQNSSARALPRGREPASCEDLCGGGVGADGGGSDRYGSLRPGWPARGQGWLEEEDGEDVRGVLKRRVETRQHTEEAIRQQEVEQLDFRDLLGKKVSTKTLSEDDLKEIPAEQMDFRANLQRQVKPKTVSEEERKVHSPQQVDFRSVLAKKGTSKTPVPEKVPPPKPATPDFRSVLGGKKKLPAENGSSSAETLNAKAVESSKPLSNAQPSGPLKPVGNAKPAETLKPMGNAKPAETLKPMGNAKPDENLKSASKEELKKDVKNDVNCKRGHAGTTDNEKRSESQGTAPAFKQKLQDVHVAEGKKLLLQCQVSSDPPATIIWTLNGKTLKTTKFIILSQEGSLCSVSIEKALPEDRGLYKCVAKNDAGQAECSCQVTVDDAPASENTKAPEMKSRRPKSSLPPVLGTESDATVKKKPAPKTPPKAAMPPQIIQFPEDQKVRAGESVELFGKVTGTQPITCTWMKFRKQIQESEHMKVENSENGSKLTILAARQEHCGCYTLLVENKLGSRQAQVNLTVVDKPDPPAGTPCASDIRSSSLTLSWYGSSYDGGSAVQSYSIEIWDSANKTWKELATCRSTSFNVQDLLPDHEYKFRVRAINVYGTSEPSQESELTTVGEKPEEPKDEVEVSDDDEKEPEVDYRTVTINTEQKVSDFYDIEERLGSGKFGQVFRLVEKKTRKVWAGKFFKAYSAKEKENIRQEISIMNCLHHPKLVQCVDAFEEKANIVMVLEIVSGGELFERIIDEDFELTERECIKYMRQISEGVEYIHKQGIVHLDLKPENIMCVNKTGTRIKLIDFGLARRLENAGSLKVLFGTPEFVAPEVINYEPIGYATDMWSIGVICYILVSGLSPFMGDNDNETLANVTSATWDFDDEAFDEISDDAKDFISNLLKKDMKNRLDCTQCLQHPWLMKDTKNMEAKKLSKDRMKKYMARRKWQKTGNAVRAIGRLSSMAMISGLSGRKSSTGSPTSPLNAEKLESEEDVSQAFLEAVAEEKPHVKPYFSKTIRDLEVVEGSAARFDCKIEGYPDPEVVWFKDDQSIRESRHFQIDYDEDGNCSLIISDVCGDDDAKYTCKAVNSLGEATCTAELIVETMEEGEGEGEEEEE

[4] = molecular target: LIM domain kinase 2 (Homo sapiens, UniProt P53671)
Sequence of LIM domain kinase 2 (P53671 whole entry, the tested form may be a part): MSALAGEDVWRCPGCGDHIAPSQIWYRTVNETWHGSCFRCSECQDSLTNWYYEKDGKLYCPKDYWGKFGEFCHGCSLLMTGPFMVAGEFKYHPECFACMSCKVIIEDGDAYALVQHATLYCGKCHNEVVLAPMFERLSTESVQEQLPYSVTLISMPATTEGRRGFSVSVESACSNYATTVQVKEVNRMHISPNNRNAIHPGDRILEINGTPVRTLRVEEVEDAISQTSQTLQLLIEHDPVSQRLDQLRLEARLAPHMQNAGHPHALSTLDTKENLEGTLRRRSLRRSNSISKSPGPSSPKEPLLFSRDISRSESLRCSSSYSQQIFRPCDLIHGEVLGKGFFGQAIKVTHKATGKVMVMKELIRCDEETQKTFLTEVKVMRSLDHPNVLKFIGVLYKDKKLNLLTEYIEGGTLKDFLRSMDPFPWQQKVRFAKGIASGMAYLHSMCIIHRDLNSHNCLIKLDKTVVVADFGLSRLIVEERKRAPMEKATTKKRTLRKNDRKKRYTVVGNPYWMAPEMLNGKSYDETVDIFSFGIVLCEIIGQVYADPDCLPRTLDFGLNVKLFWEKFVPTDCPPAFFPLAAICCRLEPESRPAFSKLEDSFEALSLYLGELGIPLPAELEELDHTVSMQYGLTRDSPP

[5] = molecular target: Mitogen-activated protein kinase kinase kinase kinase 1 (Homo sapiens, UniProt Q92918)
[6] = molecular target: T2, Serine/threonine-protein kinase LATS1 (Homo sapiens, UniProt O95835)
T2 sequence (O95835 whole entry): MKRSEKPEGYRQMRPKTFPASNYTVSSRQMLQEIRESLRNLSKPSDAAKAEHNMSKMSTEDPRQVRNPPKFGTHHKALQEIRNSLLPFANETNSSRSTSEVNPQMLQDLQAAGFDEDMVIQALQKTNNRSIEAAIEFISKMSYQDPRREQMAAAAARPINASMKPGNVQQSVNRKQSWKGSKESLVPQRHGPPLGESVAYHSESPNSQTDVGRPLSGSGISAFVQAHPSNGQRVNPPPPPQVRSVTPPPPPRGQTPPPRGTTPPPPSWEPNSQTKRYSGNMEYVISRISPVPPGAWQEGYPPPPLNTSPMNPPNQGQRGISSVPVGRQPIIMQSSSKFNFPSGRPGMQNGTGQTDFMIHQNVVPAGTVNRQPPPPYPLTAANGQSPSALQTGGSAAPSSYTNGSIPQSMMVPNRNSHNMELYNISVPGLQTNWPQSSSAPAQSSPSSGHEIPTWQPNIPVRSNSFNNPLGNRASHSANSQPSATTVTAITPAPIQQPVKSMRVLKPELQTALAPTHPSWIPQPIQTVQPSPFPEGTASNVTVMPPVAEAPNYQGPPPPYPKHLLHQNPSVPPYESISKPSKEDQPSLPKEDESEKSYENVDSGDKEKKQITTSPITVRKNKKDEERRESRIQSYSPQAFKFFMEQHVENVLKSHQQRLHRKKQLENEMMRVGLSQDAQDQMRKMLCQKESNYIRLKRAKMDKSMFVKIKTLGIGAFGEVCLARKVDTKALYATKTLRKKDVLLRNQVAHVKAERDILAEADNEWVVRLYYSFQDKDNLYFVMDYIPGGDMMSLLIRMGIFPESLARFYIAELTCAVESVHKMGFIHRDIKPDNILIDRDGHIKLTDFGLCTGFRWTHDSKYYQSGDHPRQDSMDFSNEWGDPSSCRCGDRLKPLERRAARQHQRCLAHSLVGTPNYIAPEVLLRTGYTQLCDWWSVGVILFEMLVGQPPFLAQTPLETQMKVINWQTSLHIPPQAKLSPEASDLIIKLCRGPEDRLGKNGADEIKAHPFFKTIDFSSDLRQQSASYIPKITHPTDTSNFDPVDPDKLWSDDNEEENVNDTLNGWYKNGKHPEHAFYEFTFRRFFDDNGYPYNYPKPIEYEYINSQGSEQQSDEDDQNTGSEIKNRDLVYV

[7] = molecular target: Cyclin-dependent kinase 17 (Homo sapiens, UniProt Q00537)
[8] = molecular target: ATP-dependent RNA helicase DDX3X (Homo sapiens, UniProt O00571)
[9] = molecular target: T3, Serine/threonine-protein kinase 3 (Homo sapiens, UniProt Q13188)
T3 sequence (Q13188 whole entry): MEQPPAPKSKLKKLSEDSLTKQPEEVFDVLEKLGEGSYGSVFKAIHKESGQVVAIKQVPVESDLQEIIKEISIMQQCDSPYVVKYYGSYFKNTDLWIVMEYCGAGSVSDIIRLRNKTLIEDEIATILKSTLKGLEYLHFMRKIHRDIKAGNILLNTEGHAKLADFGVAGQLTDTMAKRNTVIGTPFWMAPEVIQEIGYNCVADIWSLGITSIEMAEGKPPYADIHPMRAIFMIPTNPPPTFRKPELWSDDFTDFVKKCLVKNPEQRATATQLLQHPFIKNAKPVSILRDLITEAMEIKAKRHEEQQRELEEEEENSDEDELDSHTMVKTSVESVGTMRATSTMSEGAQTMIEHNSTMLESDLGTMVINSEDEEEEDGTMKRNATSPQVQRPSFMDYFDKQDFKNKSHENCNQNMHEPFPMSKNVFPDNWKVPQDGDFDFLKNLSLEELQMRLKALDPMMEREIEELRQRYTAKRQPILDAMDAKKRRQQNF

[10] = molecular target: MAP kinase-activated protein kinase 2 (Homo sapiens, UniProt P49137)
Sequence of MAP kinase-activated protein kinase 2 (P49137 whole entry): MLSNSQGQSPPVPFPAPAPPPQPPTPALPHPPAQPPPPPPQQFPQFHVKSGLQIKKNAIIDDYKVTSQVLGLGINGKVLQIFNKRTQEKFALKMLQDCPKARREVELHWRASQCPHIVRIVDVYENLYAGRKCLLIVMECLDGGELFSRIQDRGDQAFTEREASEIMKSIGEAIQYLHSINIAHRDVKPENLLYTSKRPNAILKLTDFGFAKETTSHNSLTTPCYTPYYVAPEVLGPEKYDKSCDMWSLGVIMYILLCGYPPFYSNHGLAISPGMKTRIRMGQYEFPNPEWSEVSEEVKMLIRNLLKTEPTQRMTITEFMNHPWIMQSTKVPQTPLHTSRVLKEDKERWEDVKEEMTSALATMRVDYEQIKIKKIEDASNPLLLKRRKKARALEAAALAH

[11] = molecular target: Proto-oncogene tyrosine-protein kinase receptor Ret (Homo sapiens, UniProt P07949)

Kd [1] | Kd [2] | Kd [3] | Kd [4] | Kd [5] | Kd [6] | Kd [7] | Kd [8] | Kd [9] | Kd [10] | SMILES | Kd [11]
> 30 µM (inactive) | > 30 µM (inactive) | > 30 µM (inactive) | > 30 µM (inactive) | > 30 µM (inactive) | > 30 µM (inactive) | > 30 µM (inactive) | > 30 µM (inactive) | – | – | COc1cc(Nc2ncc3c(n2)-c2ccc(Cl)cc2C(c2c(F)cccc2OC)=NC3)ccc1C(=O)O [ALISERTIB] | –
> 30 µM (inactive) | > 30 µM (inactive) | > 30 µM (inactive) | 4.43 µM (active) | 0.214 µM (active) | 0.045 µM (active) | 1.15 µM (active) | > 30 µM (inactive) | > 30 µM (inactive) | > 30 µM (inactive) | O=C(Nc1c[nH]nc1-c1nc2cc(CN3CCOCC3)ccc2[nH]1)NC1CC1 [AT-9283] | –
> 30 µM (inactive) | > 30 µM (inactive) | – | – | – | – | – | > 30 µM (inactive) | – | – | CNC(=O)c1ccccc1Sc1ccc2c(/C=C/c3ccccn3)n[nH]c2c1 [AXITINIB] | –
> 30 µM (inactive) | > 30 µM (inactive) | 2.68 µM (active) | > 30 µM (inactive) | > 30 µM (inactive) | > 30 µM (inactive) | > 30 µM (inactive) | > 30 µM (inactive) | > 30 µM (inactive) | 0.49 µM (active) | COc1cc2ncnc(Oc3cccc(NC(=O)Nc4cc(C(C)(C)C(F)(F)F)on4)c3)c2cc1OC [CEP-32496] | –
> 30 µM (inactive) | > 30 µM (inactive) | > 30 µM (inactive) | > 30 µM (inactive) | > 30 µM (inactive) | > 30 µM (inactive) | > 30 µM (inactive) | > 30 µM (inactive) | > 30 µM (inactive) | > 30 µM (inactive) | Cc1cc(Nc2ncc(Cl)c(Nc3ccccc3S(=O)(=O)C(C)C)n2)c(OC(C)C)cc1C1CCNCC1 [CERITINIB] | –
> 30 µM (inactive) | > 30 µM (inactive) | > 30 µM (inactive) | > 30 µM (inactive) | > 30 µM (inactive) | > 30 µM (inactive) | > 30 µM (inactive) | > 30 µM (inactive) | > 30 µM (inactive) | > 30 µM (inactive) | C#Cc1cccc(Nc2ncnc3cc(OC)c(OCCCCCCC(=O)NO)cc23)c1 [CUDC-101] | –
> 30 µM (inactive) | > 30 µM (inactive) | – | – | – | – | – | > 30 µM (inactive) | – | – | C[C@@H](Oc1cc(-n2cnc3ccc(CN4CCN(C)CC4)cc32)sc1C(N)=O)c1ccccc1C(F)(F)F [GSK-461364] | –
> 30 µM (inactive) | > 30 µM (inactive) | > 30 µM (inactive) | > 30 µM (inactive) | > 30 µM (inactive) | > 30 µM (inactive) | > 30 µM (inactive) | > 30 µM (inactive) | > 30 µM (inactive) | > 30 µM (inactive) | CN(C[C@@H]1COCCO1)S(=O)(=O)Nc1ccc2ccc3ncc(-c4cnn(C)c4)cc3c(=O)c2c1 [MK-2461] | –
> 30 µM (inactive) | > 30 µM (inactive) | > 30 µM (inactive) | > 30 µM (inactive) | 2.02 µM (active) | – | > 30 µM (inactive) | > 30 µM (inactive) | – | – | Cc1[nH]c(/C=C2\C(=O)Nc3ccccc32)c(C)c1CCC(=O)O [ORANTINIB] | –
> 30 µM (inactive) | > 30 µM (inactive) | > 30 µM (inactive) | > 30 µM (inactive) | > 30 µM (inactive) | > 30 µM (inactive) | – | > 30 µM (inactive) | – | – | NC(=O)c1c(OCc2c(F)cc(Br)cc2F)nsc1NC(=O)NCCCCN1CCCC1 [OSI-632] | –
> 30 µM (inactive) | > 30 µM (inactive) | > 30 µM (inactive) | > 30 µM (inactive) | > 30 µM (inactive) | 0.406 µM (active) | > 30 µM (inactive) | > 30 µM (inactive) | – | – | CC(=O)NCC(=O)N1[C@@H]2CC[C@H]1c1ccc(Nc3ncc(C(F)(F)F)c(NC4CCC4)n3)cc12 [PF-03814735] | –
> 30 µM (inactive) | > 30 µM (inactive) | – | – | – | – | – | > 30 µM (inactive) | – | – | O=C(NOCCO)c1cc(CN2OCCCC2=O)c(F)c(F)c1Nc1ccc(I)cc1F [RO-4987655] | –
> 30 µM (inactive) | > 30 µM (inactive) | – | – | – | – | – | > 30 µM (inactive) | – | – | N#CC[C@H](C1CCCC1)n1cc(-c2ncnc3[nH]ccc23)cn1 [RUXOLITINIB] | –

SMILES | Kd [1] | Kd [2] | Kd [3] | Kd [4] | Kd [5] | Kd [6] | Kd [7] | Kd [8] | Kd [9] | Kd [10] | Kd [11]
NC(=O)Nc1cc(-c2cccc(F)c2)sc1C(=O)N[C@H]1CCCNC1 [AZD-7762] | > 30 µM (inactive) | > 30 µM (inactive) | > 30 µM (inactive) | > 30 µM (inactive) | – | > 30 µM (inactive) | > 30 µM (inactive) | > 30 µM (inactive) | – | > 30 µM (inactive) | 0.023 µM (active)
CC(C)(C)c1nc(-c2cccc(NS(=O)(=O)c3c(F)cccc3F)c2F)c(-c2ccnc(N)n2)s1 [DABRAFENIB] | > 30 µM (inactive) | > 30 µM (inactive) | > 30 µM (inactive) | 0.082 µM (active) | > 30 µM (inactive) | > 30 µM (inactive) | 0.036 µM (active) | > 30 µM (inactive) | – | – | –
Cn1cc(C2=C(c3cn(C4CCN(Cc5ccccn5)CC4)c4ccccc34)C(=O)NC2=O)c2ccccc21 [ENZASTAURIN] | > 30 µM (inactive) | > 30 µM (inactive) | – | – | – | – | – | > 30 µM (inactive) | – | – | –
O=C(Nc1cc(C(F)(F)F)cc(C(F)(F)F)c1)c1cc(Cl)ccc1O [IMD-0354] | > 30 µM (inactive) | > 30 µM (inactive) | 3.22 µM | > 30 µM (inactive) | > 30 µM (inactive) | > 30 µM (inactive) | > 30 µM (inactive) | > 30 µM (inactive) | – | > 30 µM (inactive) | > 30 µM (inactive)
CNC(=O)c1cc(Oc2ccc(NC(=O)Nc3cc(C(C)(C)C)nn3-c3ccc4ncccc4c3)c(F)c2)ccn1 [REBASTINIB] | > 30 µM (inactive) | > 30 µM (inactive) | 2.18 µM (active) | 3.5 µM (active) | 0.566 µM (active) | > 30 µM (inactive) | 0.007 µM (active) | > 30 µM (inactive) | 12.1 µM (active) | 4.69 µM (active) | –
